Measurements taken from PubChem BioAssay AID1918942 (Molecular Pharmacology Branch, DTP, NCI, 2023).

Test system: 743489-274-T-PDC complex spheroid viability
Assay: Anticancer human tumor 743489-274-T-PDC patient-derived renal cell carcinoma cell line growth inhibition
Conditions: for IC50: curve of first compound; for viability, T/C: stronger effect = lower value
Method in brief: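 Complex spheroids of tumor cells with HUVEC and human MSCs, exposed to iadademstat combined with other agents. Each agent tested in half-log steps from near clinical Cmax (else 10 microM top), DMSO ≤0.25%.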

[1] = second compound 0.1 µM, first compound 0.0316 µM
[2] = second compound 0.1 µM, first compound 0.1 µM
[3] = second compound 0.1 µM, first compound 0.316 µM
[4] = second compound 0.1 µM, first compound 1 µM
[5] = second compound 0.1 µM, first compound 3.16 µM
[6] = second compound 0.1 µM, first compound 10 µM
[7] = second compound 0.316 µM, first compound 0.0316 µM
[8] = second compound 0.316 µM, first compound 0.1 µM
[9] = second compound 0.316 µM, first compound 0.316 µM
[10] = second compound 0.316 µM, first compound 1 µM
[11] = second compound 0.316 µM, first compound 3.16 µM
[12] = second compound 0.316 µM, first compound 10 µM
[13] = second compound 1 µM, first compound 0.0316 µM
[14] = second compound 1 µM, first compound 0.1 µM
[15] = second compound 1 µM, first compound 0.316 µM
[16] = second compound 1 µM, first compound 1 µM
[17] = second compound 1 µM, first compound 3.16 µM
[18] = second compound 1 µM, first compound 10 µM
[19] = second compound 3.16 µM, first compound 0.0316 µM
[20] = second compound 3.16 µM, first compound 0.1 µM
[21] = second compound 3.16 µM, first compound 0.316 µM
[22] = second compound 3.16 µM, first compound 1 µM
[23] = second compound 3.16 µM, first compound 3.16 µM
[24] = second compound 3.16 µM, first compound 10 µM
[25] = second compound 10 µM, first compound 0.0316 µM
[26] = second compound 10 µM, first compound 0.1 µM
[27] = second compound 10 µM, first compound 0.316 µM
[28] = second compound 10 µM, first compound 1 µM
[29] = second compound 10 µM, first compound 3.16 µM
[30] = second compound 10 µM, first compound 10 µM
[31] = second compound 0.1 µM, first compound 0.00949 µM
[32] = second compound 0.1 µM, first compound 0.03 µM
[33] = second compound 0.1 µM, first compound 0.0949 µM
[34] = second compound 0.1 µM, first compound 0.3 µM
[35] = second compound 0.316 µM, first compound 0.00949 µM
[36] = second compound 0.316 µM, first compound 0.03 µM
[37] = second compound 0.316 µM, first compound 0.0949 µM
[38] = second compound 0.316 µM, first compound 0.3 µM
[39] = second compound 1 µM, first compound 0.00949 µM
[40] = second compound 1 µM, first compound 0.03 µM
[41] = second compound 1 µM, first compound 0.0949 µM
[42] = second compound 1 µM, first compound 0.3 µM
[43] = second compound 3.16 µM, first compound 0.00949 µM
[44] = second compound 3.16 µM, first compound 0.03 µM
[45] = second compound 3.16 µM, first compound 0.0949 µM
[46] = second compound 3.16 µM, first compound 0.3 µM
[47] = second compound 10 µM, first compound 0.00949 µM
[48] = second compound 10 µM, first compound 0.03 µM
[49] = second compound 10 µM, first compound 0.0949 µM
[50] = second compound 10 µM, first compound 0.3 µM
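Also: spheroids exposed to compounds for 7 days before readout.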
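For viability, T/C in this document: 100% = DMSO vehicle control wells.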

## CC1(C)CCC(CN2CCN(c3ccc(C(=O)NS(=O)(=O)c4ccc(NCC5CCOCC5)c([N+](=O)[O-])c4)c(Oc4cnc5[nH]ccc5c4)c3)CC2)=C(c2ccc(Cl)cc2)C1 + NC1CC1c1ccc(-c2cccc(O)c2)cc1
Second compound 0.1 µM
  IC50: > 10 µM
Second compound 0.316 µM
  IC50: > 10 µM
Second compound 1 µM
  IC50: > 10 µM
Second compound 3.16 µM
  IC50: > 10 µM
Second compound 10 µM
  IC50: > 10 µM
[1]
  viability, T/C: 90.8%
[2]
  viability, T/C: 119%
[3]
  viability, T/C: 106%
[4]
  viability, T/C: 110%
[5]
  viability, T/C: 122%
[6]
  viability, T/C: 117%
[7]
  viability, T/C: 107%
[8]
  viability, T/C: 120%
[9]
  viability, T/C: 112%
[10]
  viability, T/C: 110%
[11]
  viability, T/C: 119%
[12]
  viability, T/C: 120%
[13]
  viability, T/C: 105%
[14]
  viability, T/C: 102%
[15]
  viability, T/C: 117%
[16]
  viability, T/C: 130%
[17]
  viability, T/C: 113%
[18]
  viability, T/C: 107%
[19]
  viability, T/C: 103%
[20]
  viability, T/C: 104%
[21]
  viability, T/C: 111%
[22]
  viability, T/C: 109%
[23]
  viability, T/C: 121%
[24]
  viability, T/C: 94.8%
[25]
  viability, T/C: 109%
[26]
  viability, T/C: 103%
[27]
  viability, T/C: 128%
[28]
  viability, T/C: 111%
[29]
  viability, T/C: 113%
[30]
  viability, T/C: 95.3%

## CC1COCCN1c1cc(C2(S(C)(=N)=O)CC2)nc(-c2ccnc3[nH]ccc23)n1 (stereo not given) + NC1CC1c1ccc(-c2cccc(O)c2)cc1
Second compound 0.1 µM
  IC50: > 10 µM
Second compound 0.316 µM
  IC50: > 10 µM
Second compound 1 µM
  IC50: > 10 µM
Second compound 3.16 µM
  IC50: > 10 µM
Second compound 10 µM
  IC50: > 10 µM
[1]
  viability, T/C: 94.6%
[2]
  viability, T/C: 103%
[3]
  viability, T/C: 92.3%
[4]
  viability, T/C: 94.6%
[5]
  viability, T/C: 74.4%
[6]
  viability, T/C: 68.3%
[7]
  viability, T/C: 99.5%
[8]
  viability, T/C: 96.6%
[9]
  viability, T/C: 99.6%
[10]
  viability, T/C: 101%
[11]
  viability, T/C: 90.1%
[12]
  viability, T/C: 73.3%
[13]
  viability, T/C: 89.6%
[14]
  viability, T/C: 101%
[15]
  viability, T/C: 104%
[16]
  viability, T/C: 95.1%
[17]
  viability, T/C: 76.4%
[18]
  viability, T/C: 70.8%
[19]
  viability, T/C: 107%
[20]
  viability, T/C: 114%
[21]
  viability, T/C: 97.4%
[22]
  viability, T/C: 102%
[23]
  viability, T/C: 75.3%
[24]
  viability, T/C: 66.6%
[25]
  viability, T/C: 114%
[26]
  viability, T/C: 102%
[27]
  viability, T/C: 104%
[28]
  viability, T/C: 110%
[29]
  viability, T/C: 74.7%
[30]
  viability, T/C: 70.8%

## CCN(c1cc(-c2ccc(CN3CCOCC3)cc2)cc(C(=O)NCc2c(C)cc(C)[nH]c2=O)c1C)C1CCOCC1 + NC1CC1c1ccc(-c2cccc(O)c2)cc1
Second compound 0.1 µM
  IC50: > 3 µM
Second compound 0.316 µM
  IC50: > 3 µM
Second compound 1 µM
  IC50: > 3 µM
Second compound 3.16 µM
  IC50: > 3 µM
Second compound 10 µM
  IC50: > 3 µM
[31]
  viability, T/C: 104%
[32]
  viability, T/C: 110%
[33]
  viability, T/C: 95.6%
[34]
  viability, T/C: 94.2%
Second compound 0.1 µM, first compound 0.949 µM
  viability, T/C: 96.1%
Second compound 0.1 µM, first compound 3 µM
  viability, T/C: 102%
[35]
  viability, T/C: 111%
[36]
  viability, T/C: 98.3%
[37]
  viability, T/C: 102%
[38]
  viability, T/C: 96.3%
Second compound 0.316 µM, first compound 0.949 µM
  viability, T/C: 97.2%
Second compound 0.316 µM, first compound 3 µM
  viability, T/C: 111%
[39]
  viability, T/C: 104%
[40]
  viability, T/C: 107%
[41]
  viability, T/C: 103%
[42]
  viability, T/C: 102%
Second compound 1 µM, first compound 0.949 µM
  viability, T/C: 97.2%
Second compound 1 µM, first compound 3 µM
  viability, T/C: 104%
[43]
  viability, T/C: 96.6%
[44]
  viability, T/C: 104%
[45]
  viability, T/C: 92.8%
[46]
  viability, T/C: 99.7%
Second compound 3.16 µM, first compound 0.949 µM
  viability, T/C: 108%
Second compound 3.16 µM, first compound 3 µM
  viability, T/C: 102%
[47]
  viability, T/C: 101%
[48]
  viability, T/C: 100%
[49]
  viability, T/C: 106%
[50]
  viability, T/C: 101%
Second compound 10 µM, first compound 0.949 µM
  viability, T/C: 106%
Second compound 10 µM, first compound 3 µM
  viability, T/C: 104%

## Cn1ncnc1C1c2n[nH]c(=O)c3cc(F)cc(c23)NC1c1ccc(F)cc1 (stereo not given) + NC1CC1c1ccc(-c2cccc(O)c2)cc1
Second compound 0.1 µM
  IC50: > 0.1 µM
Second compound 0.316 µM
  IC50: > 0.1 µM
Second compound 1 µM
  IC50: > 0.1 µM
Second compound 3.16 µM
  IC50: > 0.1 µM
Second compound 10 µM
  IC50: > 0.1 µM
Second compound 0.1 µM, first compound 0.000316 µM
  viability, T/C: 118%
Second compound 0.1 µM, first compound 0.001 µM
  viability, T/C: 100%
Second compound 0.1 µM, first compound 0.00316 µM
  viability, T/C: 102%
Second compound 0.1 µM, first compound 0.01 µM
  viability, T/C: 82.8%
[1]
  viability, T/C: 92.4%
[2]
  viability, T/C: 90.4%
Second compound 0.316 µM, first compound 0.000316 µM
  viability, T/C: 106%
Second compound 0.316 µM, first compound 0.001 µM
  viability, T/C: 106%
Second compound 0.316 µM, first compound 0.00316 µM
  viability, T/C: 101%
Second compound 0.316 µM, first compound 0.01 µM
  viability, T/C: 96.1%
[7]
  viability, T/C: 98.3%
[8]
  viability, T/C: 94.1%
Second compound 1 µM, first compound 0.000316 µM
  viability, T/C: 93.1%
Second compound 1 µM, first compound 0.001 µM
  viability, T/C: 103%
Second compound 1 µM, first compound 0.00316 µM
  viability, T/C: 100%
Second compound 1 µM, first compound 0.01 µM
  viability, T/C: 93%
[13]
  viability, T/C: 84.6%
[14]
  viability, T/C: 97%
Second compound 3.16 µM, first compound 0.000316 µM
  viability, T/C: 97.9%
Second compound 3.16 µM, first compound 0.001 µM
  viability, T/C: 104%
Second compound 3.16 µM, first compound 0.00316 µM
  viability, T/C: 97.8%
Second compound 3.16 µM, first compound 0.01 µM
  viability, T/C: 99.1%
[19]
  viability, T/C: 87.8%
[20]
  viability, T/C: 96.9%
Second compound 10 µM, first compound 0.000316 µM
  viability, T/C: 93.8%
Second compound 10 µM, first compound 0.001 µM
  viability, T/C: 111%
Second compound 10 µM, first compound 0.00316 µM
  viability, T/C: 97.1%
Second compound 10 µM, first compound 0.01 µM
  viability, T/C: 105%
[25]
  viability, T/C: 100%
[26]
  viability, T/C: 90.8%

## Nc1ncn(C2CC(O)C(CO)S2)c(=O)n1 (stereo not given) + NC1CC1c1ccc(-c2cccc(O)c2)cc1
Second compound 0.1 µM
  IC50: > 0.3 µM
Second compound 0.316 µM
  IC50: > 0.3 µM
Second compound 1 µM
  IC50: > 0.3 µM
Second compound 3.16 µM
  IC50: > 0.3 µM
Second compound 10 µM
  IC50: > 0.3 µM
Second compound 0.1 µM, first compound 0.000949 µM
  viability, T/C: 102%
Second compound 0.1 µM, first compound 0.003 µM
  viability, T/C: 94.5%
[31]
  viability, T/C: 105%
[32]
  viability, T/C: 85.3%
[33]
  viability, T/C: 76.2%
[34]
  viability, T/C: 74.8%
Second compound 0.316 µM, first compound 0.000949 µM
  viability, T/C: 95.4%
Second compound 0.316 µM, first compound 0.003 µM
  viability, T/C: 102%
[35]
  viability, T/C: 90.6%
[36]
  viability, T/C: 83.3%
[37]
  viability, T/C: 74.3%
[38]
  viability, T/C: 71.1%
Second compound 1 µM, first compound 0.000949 µM
  viability, T/C: 94.2%
Second compound 1 µM, first compound 0.003 µM
  viability, T/C: 89.6%
[39]
  viability, T/C: 81.5%
[40]
  viability, T/C: 77.4%
[41]
  viability, T/C: 73.5%
[42]
  viability, T/C: 73.2%
Second compound 3.16 µM, first compound 0.000949 µM
  viability, T/C: 96.5%
Second compound 3.16 µM, first compound 0.003 µM
  viability, T/C: 85.8%
[43]
  viability, T/C: 83%
[44]
  viability, T/C: 78.5%
[45]
  viability, T/C: 75.1%
[46]
  viability, T/C: 78%
Second compound 10 µM, first compound 0.000949 µM
  viability, T/C: 92.3%
Second compound 10 µM, first compound 0.003 µM
  viability, T/C: 85.1%
[47]
  viability, T/C: 86.9%
[48]
  viability, T/C: 89%
[49]
  viability, T/C: 67.8%
[50]
  viability, T/C: 64%
